# Assay results reported in US7605272B2, “IGF-1R inhibitor” (Kyowa Hakko Kirin Co., Ltd., priority 2005, dated 2009).
# Experiments:
# NCI-H929 = test: Cytostatic activity on human multiple myeloma cell line NCI-H929 (WST-1); assay type: cell-based; conditions: 10 μmol/L, 72 hours; for inhibition at 10 µM: Homo sapiens, NCI-H929, 72 h, read-out: cytostatic rate (%) H929 (10 μmol/L)
# Description: (§1) The cytostatic rates of a test compound on human multiple myeloma cell lines NCI-H929 and KMS-11, were determined in the following manner.
# (§2) For culturing NCI-H929, Roswell Park Memorial Institute's Medium (RPMI) 1640 (Gibco, Catalog No. 11875-093) containing 15% fetal bovine serum (Gibco, Catalog No. 10099-141), 1 mmol/L sodium pyruvate (Gibco, Catalog No. 11360-070), 10 mmol/L HEPES (Gibco, Catalog No. 15630-80), 4.5 g/L glucose (Sigma, Catalog No. G8769), 0.05 mmol/L 2-mercaptethanol (Nacalai Tesque, Catalog No. 21418-42) and penicillin/streptomycin (1:1) (Gibco, Catalog No. 15140-122) was used. For culturing KMS-11 cell, RPMI 1640 medium containing 10% fetal bovine serum and penicillin/streptomycin (1:1) was used. Each 80 μL of the NCI-H929 cell having a concentration of 1×10^5 cells/mL (or the KMS-11 cell having a concentration of 7.5×10^4 cells/mL) was inoculated to wells of a TC MICROWELL 96U plate (Nalge Nunc International, Catalog No. 163320) and was cultured in a 5% carbon dioxide gas incubator at 37° C. for 24 hours. Each 20 μL of a solution of the test compound in dimethyl sulfoxide (DMSO) which was prepared to make the final concentration to 1 μmol/L or 10 μmol/L, was added to each well. Each 20 μL of DMSO was added to the control well and the blank well to a final concentration of 0.1%. After adding the test compound, the cells were incubated in a 5% carbon dioxide gas incubator at 37° C. for 72 hours except for the blank well. After adding 20 μL of WST-1 reagent {4-[3-(4-iodophenyl)-2-(4-nitrophenyl)-2H-5-tetrazolio]-1,3-benzene disulfonate sodium salt} (Roche Diagnostics K.K., Catalog No. 1644807), which was diluted to 50% by RPMI medium to each well, the cells were further incubated at 37° C. for 2 hours. Then, the absorbances at 450 nm (reference wavelength: 690 nm) were measured with a microplate spectrophotometer SPECTRA max 340PC (Molecular Devices Corporation). The relative growth (%) of a well to which the test compound had been added and cultured for 72 hours was determined while setting the absorbance of a well to which not the test compound but DMSO alone had been added and cultured for 72 hours (control) as 100% and that of a well where the drugs are added (blank) as 0%. The cytostatic rate (%) of the test compound was determined by subtracting the calculated relative growth from 100.
# KMS-11 = test: Cytostatic activity on human multiple myeloma cell line KMS-11 (WST-1); assay type: cell-based; conditions: 10 μmol/L, 72 hours; for inhibition at 10 µM: Homo sapiens, KMS-11, 72 h, read-out: cytostatic rate (%) KMS-11 (10 μmol/L)
# Description: as §1, §2
# IGF-1R = target: T1, IGF-1R (Homo sapiens, UniProt P08069); test: IGF-1R inhibitory activity (kinase reaction, time-resolved fluoroimmunoassay); assay type: biochemical; conditions: IGF-1R active recombinant enzyme, test compound 10 μmol/L
# T1 construct: purchased Upstate Co. 14-465
# T1 sequence (P08069 959-1367 limits assumed): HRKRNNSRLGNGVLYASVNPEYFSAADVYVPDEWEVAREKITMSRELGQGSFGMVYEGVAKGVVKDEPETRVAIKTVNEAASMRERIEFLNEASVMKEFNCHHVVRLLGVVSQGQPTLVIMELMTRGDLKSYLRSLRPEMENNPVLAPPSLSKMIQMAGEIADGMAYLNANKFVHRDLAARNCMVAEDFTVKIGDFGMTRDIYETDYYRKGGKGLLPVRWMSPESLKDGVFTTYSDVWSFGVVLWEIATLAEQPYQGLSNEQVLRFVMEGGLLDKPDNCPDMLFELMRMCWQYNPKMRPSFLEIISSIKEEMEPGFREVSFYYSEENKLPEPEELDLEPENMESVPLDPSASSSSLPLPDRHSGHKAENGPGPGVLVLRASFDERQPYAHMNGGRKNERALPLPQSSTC
# Procedure, shortened: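 Compounds were tested at a single 10 μmol/L concentration. Each was incubated with recombinant IGF-1R (200 μg/L), 10 mmol/L ATP, MgCl2/MnCl2 and Na3VO4 (pH 7.5) on immobilized poly(Glu-Tyr) peptide for 30 min at 24° C. Eu-anti-phosphotyrosine time-resolved fluorescence (340/615 nm) gave relative activity against no-compound and no-enzyme wells, reported as % inhibition.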
SMILES,inhibition at 10 µM (IGF-1R),inhibitory activity (%) at 10 μmol/L (IGF-1R),inhibition at 10 µM (NCI-H929),inhibition at 10 µM (KMS-11),cytostatic rate (%) H929 (10 μmol/L) (NCI-H929),cytostatic rate (%) KMS-11 (10 μmol/L) (KMS-11)
"O=C(Nc1ccccc1/C=C/c1n[nH]c2ccccc12)c1ccccn1 [Compound 12, (E)-N-{2-[2-(1H-indazol-3-yl)vinyl]phenyl}pyridine-2-carboxamide]",96.1%,–,118%,120%,–,–
"C(=C\c1n[nH]c2ccccc12)/c1ccccc1OCc1ccccc1 [Compound 13, (E)-3-[2-(2-benzyloxyphenyl)vinyl]-1H-indazole]",96.9%,–,116%,105%,–,–
"O=C(Nc1ccccc1/C=C/c1n[nH]c2ccccc12)c1cccs1 [Compound 14, (E)-N-{2-[2-(1H-indazol-3-yl)vinyl]phenyl}thiophene-2-carboxamide]",96.5%,–,114%,110%,–,–
"O=C(Cc1ccccc1)Nc1ccccc1/C=C/c1n[nH]c2ccccc12 [Compound 15, (E)-N-{2-[2-(1H-indazol-3-yl)vinyl]phenyl}-2-phenylacetamide]",55.4%,–,93.6%,95.1%,–,–
"O=S(=O)(Nc1ccccc1/C=C/c1n[nH]c2ccccc12)c1ccccc1 [Compound 16, (E)-N-{2-[2-(1H-indazol-3-yl)vinyl]phenyl}benzenesulfonamide]",59.2%,–,64.7%,85.2%,–,–
"CN(C)c1ccc(C(=O)Nc2ccccc2/C=C/c2n[nH]c3ccccc23)cc1 [Compound 17, (E)-4-dimethylamino-N-{2-[2-(1H-indazol-3-yl)vinyl]phenyl}benzamide]",98.3%,–,115%,127%,–,–
"CC(C)C(=O)Nc1ccccc1/C=C/c1n[nH]c2ccccc12 [Compound 18, (E)-N-{2-[2-(1H-indazol-3-yl)vinyl]phenyl}isobutylamide]",–,96.4%,–,–,112.7%,124.1%
"COc1cccc(C(=O)Nc2ccccc2/C=C/c2n[nH]c3ccccc23)c1 [Compound 19, (E)-N-{2-[2-(1H-indazol-3-yl)vinyl]phenyl}-3-methoxybenzamide]",95.3%,–,132%,110%,–,–
"COc1ccccc1C(=O)Nc1ccccc1/C=C/c1n[nH]c2ccccc12 [Compound 20, (E)-N-{2-[2-(1H-indazol-3-yl)vinyl]phenyl}-2-methoxybenzamide]",97.3%,–,130%,107%,–,–
"CCNC(=O)Nc1ccccc1/C=C/c1n[nH]c2ccccc12 [Compound 21, (E)-1-ethyl-3-{2-[2-(1H-indazol-3-yl)vinyl]phenyl}urea]",88.2%,–,114%,94%,–,–
"O=C(Nc1ccccc1/C=C/c1n[nH]c2ccccc12)C1CCCCC1 [Compound 23, (E)-N-{2-[2-(1H-indazol-3-yl)vinyl]phenyl}cyclohexanecarboxamide]",95.4%,–,130%,109%,–,–
"O=C(Nc1ccccc1/C=C/c1n[nH]c2ccccc12)C1CCCC1 [Compound 24, (E)-N-{2-[2-(1H-indazol-3-yl)vinyl]phenyl}cyclopentanecarboxamide]",97.4%,–,116%,110%,–,–
"O=C(Cc1cccs1)Nc1ccccc1/C=C/c1n[nH]c2ccccc12 [Compound 25, (E)-N-{2-[2-(1H-indazol-3-yl)vinyl]phenyl}-2-(thiophen-2-yl)acetamide]",86%,–,116%,106%,–,–
"CN(C)c1cccc(C(=O)Nc2ccccc2/C=C/c2n[nH]c3ccccc23)c1 [Compound 27, (E)-3-dimethylamino-N-{2-[2-(1H-indazol-3-yl)vinyl]phenyl}benzamide]",99.3%,–,119%,114%,–,–
"O=C(Nc1ccccc1/C=C/c1n[nH]c2ccccc12)c1cnccn1 [Compound 28, (E)-N-{2-[2-(1H-indazol-3-yl)vinyl]phenyl}pyrazine-2-carboxamide]",95.2%,–,116%,109%,–,–
"Cc1ccccc1C(=O)Nc1ccccc1/C=C/c1n[nH]c2ccccc12 [Compound 30, (E)-N-{2-[2-(1H-indazol-3-yl)vinyl]phenyl}-2-methylbenzamide]",97.6%,–,115%,115%,–,–
"O=C(Nc1ccccc1/C=C/c1n[nH]c2ccccc12)c1ccsc1 [Compound 31, (E)-N-{2-[2-(1H-indazol-3-yl)vinyl]phenyl}thiophene-3-carboxamide]",99.7%,–,114%,117%,–,–
"O=C(Nc1ccccc1/C=C/c1n[nH]c2ccccc12)C1CCCO1 (stereo not drawn) [Compound 32, (E)-N-{2-[2-(1H-indazol-3-yl)vinyl]phenyl}tetrahydrofuran-2-carboxamide]",98.6%,–,113%,126%,–,–

# More lines, main results first:
inhibition at 10 µM (IGF-1R),inhibitory activity (%) at 10 μmol/L (IGF-1R),SMILES,inhibition at 10 µM (NCI-H929),inhibition at 10 µM (KMS-11),cytostatic rate (%) H929 (10 μmol/L) (NCI-H929),cytostatic rate (%) KMS-11 (10 μmol/L) (KMS-11)
92.4%,–,"O=C(Nc1ccccc1/C=C/c1n[nH]c2ccccc12)C1CC1 [Compound 33, (E)-N-{2-[2-(1H-indazol-3-yl)vinyl]phenyl}cyclopropanecarboxamide]",108%,115%,–,–
99.2%,–,"O=C(Nc1ccccc1/C=C/c1n[nH]c2ccccc12)c1ccc(Br)s1 [Compound 34, (E)-5-bromo-N-{2-[2-(1H-indazol-3-yl)vinyl]phenyl}thiophene-2-carboxamide]",113%,116%,–,–
98.4%,–,"O=C(Nc1ccccc1/C=C/c1n[nH]c2ccccc12)N1CCOCC1 [Compound 35, (E)-N-{2-[2-(1H-indazol-3-yl)vinyl]phenyl}morpholine-4-carboxamide]",110%,125%,–,–
98.6%,–,"O=C(Nc1ccccc1/C=C/c1n[nH]c2ccccc12)c1cscn1 [Compound 36, (E)-N-{2-[2-(1H-indazol-3-yl)vinyl]phenyl}thiazole-4-carboxamide]",112%,116%,–,–
99.1%,–,"O=C(Nc1ccccc1/C=C/c1n[nH]c2ccccc12)c1ccno1 [Compound 37, (E)-N-{2-[2-(1H-indazol-3-yl)vinyl]phenyl}isoxazole-5-carboxamide]",112%,112%,–,–
59.1%,–,"O=C(CCc1cccs1)Nc1ccccc1/C=C/c1n[nH]c2ccccc12 [Compound 39, (E)-N-{2-[2-(1H-indazol-3-yl)vinyl]phenyl}-3-(thiophen-2-yl)propionamide]",68.8%,91%,–,–
98.8%,–,"Cc1ccc(C(=O)Nc2ccccc2/C=C/c2n[nH]c3ccccc23)s1 [Compound 40, (E)-N-{2-[2-(1H-indazol-3-yl)vinyl]phenyl}-5-methylthiophene-2-carboxamide]",125%,108%,–,–
98.9%,–,"O=C(Nc1ccccc1/C=C/c1n[nH]c2ccccc12)c1ccc[nH]1 [Compound 42, (E)-N-{2-[2-(1H-indazol-3-yl)vinyl]phenyl}-1H-pyrrole-2-carboxamide]",126%,109%,–,–
96.3%,–,"CC(=O)c1ccc(C(=O)Nc2ccccc2/C=C/c2n[nH]c3ccccc23)s1 [Compound 43, (E)-5-acetyl-N-{2-[2-(1H-indazol-3-yl)vinyl]phenyl}thiophene-2-carboxamide]",113%,112%,–,–
98%,–,"O=C(Nc1ccccc1/C=C/c1n[nH]c2ccccc12)C1CCC1 [Compound 44, (E)-N-{2-[2-(1H-indazol-3-yl)vinyl]phenyl}cyclobutanecarboxamide]",115%,113%,–,–
